Test results published in the C3SDB collision cross section collection.
“And” between values parts separate entries of the source, which are not always exact repeats. Equal entries are not always repeated. Structures can show the parent of a compound that is named as a salt.

Conditions: instrument: DT, single field, calibrated with ESI Low Concentration Tuning Mix (Agilent)

## C[C@@H](O)[C@H](N)C(=O)O [THREONINE]
[M+H]+
  collision cross section (N2): 126.7 Å²
[M-H]-
  collision cross section (N2): 120.2 Å²

## O=C(O)CC(O)C(=O)O (stereo unspecified) [MALATE]
[M-H]-
  collision cross section (N2): 115.9 Å²

## Nc1nc(=O)c2ncn([C@@H]3O[C@H](CO)[C@@H](O)[C@H]3O)c2[nH]1 [GUANOSINE]
[M+H]+
  collision cross section (N2): 163.4 Å²
[M+K]+
  collision cross section (N2): 174.3 Å²
[M+Na]+
  collision cross section (N2): 174.9 Å²
[M-H]-
  collision cross section (N2): 162.1 Å²

## OC[C@H]1OC(O)[C@H](O)[C@H](O)[C@@H]1O (stereo partly specified) [ALLOSE]
[M+Na]+
  collision cross section (N2): 143.2 Å² and 146.2 Å²

## O=C(O)[C@H](O)[C@@H](O)[C@H](O)[C@H](O)CO [GLUCONATE]
[M+Na]+
  collision cross section (N2): 146.2 Å² and 146.3 Å²
[M-H]-
  collision cross section (N2): 132.4 Å²

## NCCc1cnc[nH]1 [HISTAMINE]
[M+H]+
  collision cross section (N2): 120.4 Å²

## OCC(O)c1ccc(O)c(O)c1 (stereo unspecified) [3,4-DIHYDROXYPHENYLGLYCOL]
[M-H2O-H]-
  collision cross section (N2): 127.5 Å²

## C[C@H](CCC(=O)NCC(=O)O)[C@H]1CC[C@H]2[C@@H]3[C@H](O)C[C@@H]4C[C@H](O)CC[C@]4(C)[C@H]3CC[C@]12C [GLYCOCHENODEOXYCHOLATE]
[M+H]+
  collision cross section (N2): 196.8 Å²
[M+Na]+
  collision cross section (N2): 203.6 Å²
[M-H]-
  collision cross section (N2): 200.7 Å²

## N[C@@H](CCS)C(=O)O [HOMOCYSTEINE]
[M+H]+
  collision cross section (N2): 130.3 Å²
[M+Na-2H]-
  collision cross section (N2): 127.6 Å²
[M-H]-
  collision cross section (N2): 143.6 Å²

## Nc1ncnc2c1ncn2[C@H]1C[C@H](O)[C@@H](COP(=O)(O)O)O1 [DEOXYADENOSINE MONOPHOSPHATE]
[M+H]+
  collision cross section (N2): 168.5 Å²
[M+Na-2H]-
  collision cross section (N2): 169.8 Å²
[M+Na]+
  collision cross section (N2): 173 Å²
[M-H]-
  collision cross section (N2): 164.9 Å²

## O=C(O)[C@@H]1C[C@@H](O)CN1 [TRANS-4-HYDROXY-L-PROLINE]
[M+H]+
  collision cross section (N2): 127.9 Å²
[M+Na]+
  collision cross section (N2): 139.3 Å²
[M-H]-
  collision cross section (N2): 126.2 Å² and 126.3 Å²

## OC[C@@H](O)[C@@H](O)CO [ERYTHRITOL]
[M+Na]+
  collision cross section (N2): 129.9 Å²

## CC(C)=CC(=O)SCCNC(=O)CCNC(=O)C(O)C(C)(C)COP(=O)(O)OP(=O)(O)OC[C@H]1O[C@@H](n2cnc3c(N)ncnc32)[C@H](O)[C@@H]1OP(=O)(O)O (stereo partly specified) [3-METHYLCROTONYL-COA]
[M+H]+
  collision cross section (N2): 256.1 Å²
[M+Na-2H]-
  collision cross section (N2): 266.9 Å²
[M-H]-
  collision cross section (N2): 256.7 Å²

## COc1cc(C(O)CN)ccc1O (stereo unspecified) [NORMETANEPHRINE]
[M+Na]+
  collision cross section (N2): 155 Å²

## O=c1nc[nH]c2c1ncn2[C@@H]1O[C@H](CO)[C@@H](O)[C@H]1O [INOSINE]
[M+K]+
  collision cross section (N2): 170.2 Å²
[M+Na]+
  collision cross section (N2): 170.8 Å²
[M-H]-
  collision cross section (N2): 158.2 Å²

## O=C(O)[C@H](O)[C@@H](O)[C@H](O)[C@H](O)COP(=O)(O)O [6-PHOSPHOGLUCONATE]
[M+Na-2H]-
  collision cross section (N2): 148.9 Å²
[M+Na]+
  collision cross section (N2): 157.6 Å²
[M-H]-
  collision cross section (N2): 143.6 Å²

## NC(=O)CC[C@H](N)C(=O)O [GLUTAMINE]
[M+H]+
  collision cross section (N2): 130.9 Å²
[M-H]-
  collision cross section (N2): 127.3 Å²

## NCCc1ccc(O)c(O)c1 [DOPAMINE]
[M+H]+
  collision cross section (N2): 142.3 Å²
[M-H]-
  collision cross section (N2): 131.8 Å²

## CCCCCCCCCCCCCCC[C@@H](O)[C@@H](N)CO [SPHINGANINE]
[M+H]+
  collision cross section (N2): 189 Å²
[M+Na]+
  collision cross section (N2): 191.1 Å²

## CCCCCCCCCCCCCCCCCCCC(=O)O [ARACHIDATE]
[M-H]-
  collision cross section (N2): 185.1 Å²

## Nc1ncnc2c1ncn2[C@@H]1O[C@H](COP(=O)(O)OP(=O)(O)O)[C@@H](O)[C@H]1O [ADENOSINE 5'-DIPHOSPHATE]
[M+H]+
  collision cross section (N2): 187 Å²
[M+Na-2H]-
  collision cross section (N2): 187.7 Å²
[M+Na]+
  collision cross section (N2): 193.1 Å²
[M-H]-
  collision cross section (N2): 183.7 Å²

## O=C(O)CCCC(=O)C(=O)O [OXOADIPATE]
[M+Na-2H]-
  collision cross section (N2): 132.2 Å²
[M+Na]+
  collision cross section (N2): 137.9 Å²
[M-H]-
  collision cross section (N2): 126.5 Å²

## Nc1nc(=O)c2ncn([C@@H]3O[C@H](COP(=O)(O)OP(=O)(O)OP(=O)(O)O)[C@@H](O)[C@H]3O)c2[nH]1 [GUANOSINE TRIPHOSPHATE]
[M+Na-2H]-
  collision cross section (N2): 184.2 Å²
[M-H]-
  collision cross section (N2): 193 Å²

## N[C@@H](Cc1cnc[nH]1)C(=O)O [HISTIDINE]
[M+H]+
  collision cross section (N2): 131.7 Å² and 132.1 Å²
[M+Na]+
  collision cross section (N2): 134.6 Å² and 134.8 Å²
[M-H]-
  collision cross section (N2): 128.1 Å² and 128.5 Å²

## O=Cc1ccc(O)cc1 [4-HYDROXYBENZALDEHYDE]
[M-H]-
  collision cross section (N2): 118.2 Å²

## Nc1cc(C(=O)O)ccc1[O-] [3-AMINO-4-HYDROXYBENZOATE]
[M+H]+
  collision cross section (N2): 139.6 Å²
[M-H]-
  collision cross section (N2): 125.7 Å²

## NC(CSCC(=O)O)C(=O)O (stereo unspecified) [S-CARBOXYMETHYLCYSTEINE]
[M+H]+
  collision cross section (N2): 137.1 Å²
[M+Na-2H]-
  collision cross section (N2): 136.7 Å²
[M+Na]+
  collision cross section (N2): 138.2 Å²
[M-H]-
  collision cross section (N2): 130 Å²

## Nc1ccn([C@@H]2O[C@H](COP(=O)(O)OP(=O)(O)OP(=O)(O)O)[C@@H](O)[C@H]2O)c(=O)n1 [CYTIDINE TRIPHOSPHATE]
[M+H]+
  collision cross section (N2): 188.4 Å²
[M+Na-2H]-
  collision cross section (N2): 185 Å²
[M+Na]+
  collision cross section (N2): 192.4 Å²
[M-H]-
  collision cross section (N2): 181.2 Å²

## O=C(O)[C@H]1C[C@@H](O)CN1 [CIS-4-HYDROXY-D-PROLINE]
[M+H]+
  collision cross section (N2): 128.3 Å²
[M+Na]+
  collision cross section (N2): 130.6 Å²
[M-H]-
  collision cross section (N2): 124.3 Å²

## CC(C)(COP(=O)(O)OP(=O)(O)OC[C@H]1O[C@@H](n2cnc3c(N)ncnc32)[C@H](O)[C@@H]1OP(=O)(O)O)[C@@H](O)C(=O)NCCC(=O)NCCSC(=O)C[C@@](C)(O)CC(=O)O [3-HYDROXY-3-METHYLGLUTARYL-COA]
[M+H]+
  collision cross section (N2): 265.4 Å²
[M+Na-2H]-
  collision cross section (N2): 267.3 Å²
[M+Na]+
  collision cross section (N2): 266.2 Å²
[M-H]-
  collision cross section (N2): 261.9 Å²

## COC1=C(OC)C(=O)C(C/C=C(\C)CC/C=C(\C)CC/C=C(\C)CC/C=C(\C)CC/C=C(\C)CC/C=C(\C)CC/C=C(\C)CC/C=C(\C)CC/C=C(\C)CCC=C(C)C)=C(C)C1=O [COENZYME Q10]
[M+Na]+
  collision cross section (N2): 306.6 Å²

## Nc1ccn([C@H]2C[C@H](O)[C@@H](COP(=O)(O)O)O2)c(=O)n1 [DEOXYCYTIDINE MONOPHOSPHATE]
[M+Na]+
  collision cross section (N2): 157 Å² and 164.7 Å²
[M-H]-
  collision cross section (N2): 162.4 Å²

## NC(=O)C[C@H](N)C(=O)O [ASPARAGINE]
[M+Na]+
  collision cross section (N2): 129.5 Å²
[M-H]-
  collision cross section (N2): 121.9 Å²

## O=C(O)c1ccc(=O)[nH]c1 [6-HYDROXYNICOTINATE]
[M+H]+
  collision cross section (N2): 128.9 Å²

## CCCCCC/C=C\CCCCCCCC(=O)O [PALMITOLEATE]
[M-H]-
  collision cross section (N2): 167.3 Å²

## Nc1ncnc2c1ncn2C1OC(CO)C2OP(=O)(O)OC21 (stereo unspecified) [ADENOSINE 2',3'-CYCLIC PHOSPHATE]
[M+H2O-H]-
  collision cross section (N2): 173.5 Å²
[M+H]+
  collision cross section (N2): 168.1 Å²
[M+Na]+
  collision cross section (N2): 175.1 Å² and 181 Å²
[M-H]-
  collision cross section (N2): 169.4 Å²

## CCCCCCCCCCCCCCCC(=O)OC(CC(=O)[O-])C[N+](C)(C)C (stereo unspecified) [PALMITOYLCARNITINE]
[M+H]+
  collision cross section (N2): 213.9 Å²
[M+Na]+
  collision cross section (N2): 219.7 Å²

## N[C@@H](CCC(=O)O)C(=O)O [GLUTAMATE]
[M+H]+
  collision cross section (N2): 131.1 Å²
[M+K]+
  collision cross section (N2): 149.8 Å²
[M+Na-2H]-
  collision cross section (N2): 131.8 Å²
[M-H]-
  collision cross section (N2): 123.8 Å²

## Nc1nc(=O)c2nccnc2[nH]1 [PTERIN]
[M+H]+
  collision cross section (N2): 128.6 Å²
[M+Na]+
  collision cross section (N2): 143.4 Å²
[M-H]-
  collision cross section (N2): 128.1 Å²

## O=CC[C@H](O)[C@H](O)CO [DEOXYRIBOSE]
[M+Na]+
  collision cross section (N2): 134.3 Å²

## N[C@@H](Cc1cc(I)c(O)c(I)c1)C(=O)O [3,5-DIIODO-L-TYROSINE]
[M+H]+
  collision cross section (N2): 171.1 Å²
[M+Na]+
  collision cross section (N2): 165.2 Å²
[M-H]-
  collision cross section (N2): 159.3 Å²

## Cc1ncc(COP(=O)(O)O)c(C=O)c1O [PYRIDOXAL-PHOSPHATE]
[M+H]+
  collision cross section (N2): 151.3 Å²
[M+Na-2H]-
  collision cross section (N2): 153.2 Å²
[M+Na]+
  collision cross section (N2): 160.8 Å²
[M-H]-
  collision cross section (N2): 149.4 Å²

## C[N+](C)(C)CC(=O)[O-] [BETAINE]
[M+K]+
  collision cross section (N2): 130.5 Å²

## O=C([O-])C(O)c1ccccc1 (stereo unspecified) [MANDELATE]
[M-H]-
  collision cross section (N2): 130.2 Å²

## O=C(O)c1ccccc1[O-] [SALICYLATE]
[M-H]-
  collision cross section (N2): 119.8 Å²

## C[C@H](O)[C@H](O)C1=Nc2c([nH]c(N)nc2=O)NC1 [DIHYDROBIOPTERIN]
[M+H]+*
  collision cross section (N2): 153.9 Å²
[M+Na]+*
  collision cross section (N2): 157.2 Å²

## NCCc1cc(O)c(O)cc1O [6-HYDROXYDOPAMINE]
[M+H]+
  collision cross section (N2): 143 Å²

## CC(=O)[C@H]1CC[C@H]2[C@@H]3CC=C4C[C@@H](OS(=O)(=O)O)CC[C@]4(C)[C@H]3CC[C@]12C [PREGNENOLONE SULFATE]
[M-H]-
  collision cross section (N2): 206.2 Å²

## C=C(OP(=O)(O)O)C(=O)O [PHOSPHOENOLPYRUVATE]
[M+Na]+
  collision cross section (N2): 138 Å² and 138.4 Å²

## CC(=O)Oc1cccc(O)c1 [RESORCINOL MONOACETATE]
[M-H]-
  collision cross section (N2): 126.1 Å²

## O=C(O)[C@@H]1CCCN1 [PROLINE]
[M+H]+
  collision cross section (N2): 125.1 Å²
[M-H]-
  collision cross section (N2): 124.5 Å²

## NCC(=O)CCC(=O)O [5-AMINOLEVULINATE]
[M+H]+
  collision cross section (N2): 130.7 Å²

## CN(CC(=O)O)/C(N)=N/P(=O)(O)O [PHOSPHOCREATINE]
[M+H]+
  collision cross section (N2): 144.6 Å² and 144.8 Å²
[M+Na-2H]-
  collision cross section (N2): 142.7 Å² and 142.8 Å²

## Nc1ccnc(=O)[nH]1 [CYTOSINE]
[M+H]+
  collision cross section (N2): 122.8 Å²
